Literature values, collected in patent US8802142B2, “Pharmaceutical compositions comprising levetiracetam and process for their preparation” (UCB Pharma, S.A., priority 2005, dated 2014).

Details: A. J. Gower et al., Eur. J. Pharmacol., 222, 1992, 193-203

Row | Compound | activity in the treatment of epilepsy
1 | (R)-(−)-α-ethyl-2-oxo-1-pyrrolidine acetamide | completely lacks activity
2 | CC[C@@H](C(N)=O)N1CCCC1=O [Levetiracetam, (S)-(−)-α-ethyl-2-oxo-1-pyrrolidine acetamide] | effective
